Data taken from patent publication US20140349948A1, “Treatment of Chronic Constipation” (Forest Laboratories Holdings Limited, priority 2009, published 2014).
Marks after values point to notes of the source that are not given here. Residues, ends and D or L forms follow the SMILES beside them.

Assays:
[1] = Systemic linaclotide levels after oral administration; assay type: in vivo; settings: after oral administration at therapeutic dose levels
Text: Linaclotide is a peptide GC-C agonist that is orally administered and currently in clinical trials for treatment of irritable bowel syndrome with constipation (IBS-c) and CC.

[2] = test system: patients with chronic constipation; assay: Trials 1 and 2 pooled; assay type: in vivo, human; settings: for Straining, Week 1 Mean Change from Baseline / Abdominal discomfort, Week 1 Mean Change from Baseline / Bloating, Week 1 Mean Change from Baseline / Constipation severity, Week 1 Mean Change from Baseline: 5-point scale: 1 = none; for Straining, Week 1 Mean Change from Baseline: 5 = an extreme amount; for Abdominal discomfort, Week 1 Mean Change from Baseline / Bloating, Week 1 Mean Change from Baseline / Constipation severity, Week 1 Mean Change from Baseline: 5 = very severe; for Stool Consistency, Week 1 Mean Change from Baseline: 7-point scale (BSFS)
Procedure: (§1) Linaclotide Capsules from Example 4 were administered in multicenter, randomized, double-blind, placebo-controlled trials.
(§2) Trial 1 was conducted in 630 patients meeting modified Rome II criteria for chronic constipation. The trial included a two-week pretreatment baseline period and a 12-week treatment period. A diagram of the study design for Trial 2 is given in FIG. 1, which is substantially similar to Trial 1 except for the addition of a Randomized Withdrawal period in Trial 2 as described below.
(§3) Trial 2 was conducted in 642 patients and was identical to Trial 1 except that Trial 2 also included a four-week Randomized Withdrawal Period, defined below. During the two-week pretreatment (baseline) period, 68 percent of patients in Trial 2 had no CSBMs.

[3] = test system: patients with chronic constipation; assay: Chronic Constipation Trial 2, 12-week treatment period; assay type: in vivo, human; settings: for Straining, Week 1 Mean Change from Baseline / Abdominal discomfort, Week 1 Mean Change from Baseline / Bloating, Week 1 Mean Change from Baseline / Constipation severity, Week 1 Mean Change from Baseline: 5-point scale: 1 = none; for Straining, Week 1 Mean Change from Baseline: 5 = an extreme amount; for Abdominal discomfort, Week 1 Mean Change from Baseline / Bloating, Week 1 Mean Change from Baseline / Constipation severity, Week 1 Mean Change from Baseline: 5 = very severe; for Stool Consistency, Week 1 Mean Change from Baseline: 7-point scale (BSFS)
Procedure: as §1, §2
The Treatment Period began with randomization and lasted for 12 weeks. Patients were randomized to treatment with 133 μg linaclotide, 266 μg linaclotide, or placebo (1:1:1), taken once daily in the morning. Patients continued to provide their daily assessments such as their daily bowel habit assessments and daily patient symptom severity assessments.
as §3

[4] = Trial 2, 133 μg (p≦0.0001) and 266 μg (p≦0.0001)

## C[C@@H]1NC(=O)[C@@H]2CCCN2C(=O)[C@H](CC(N)=O)NC(=O)[C@@H]2CSSC[C@H](N)C(=O)N[C@H]3CSSC[C@H](NC1=O)C(=O)N[C@@H]([C@@H](C)O)C(=O)NCC(=O)N[C@H](C(=O)N[C@@H](Cc1ccc(O)cc1)C(=O)O)CSSC[C@H](NC(=O)[C@H](Cc1ccc(O)cc1)NC(=O)[C@H](CCC(=O)O)NC3=O)C(=O)N2 [Linaclotide, Cys1 Cys2 Glu3 Tyr4 Cys5 Cys6 Asn7 Pro8 Ala9 Cys10 Thr11 Gly12 Cys13 Tyr14] (HELM PEPTIDE1{C.C.E.Y.C.C.N.P.A.C.T.G.C.Y}$PEPTIDE1,PEPTIDE1,1:R3-6:R3|PEPTIDE1,PEPTIDE1,2:R3-10:R3|PEPTIDE1,PEPTIDE1,5:R3-13:R3$$$V2.0)
[1]
  levels seen systemically: no detectable levels
[2]; 133 μg, Pooled (n = 430)
  CSBM rate, Week 1 Mean Change from Baseline: 2.02**
  SBM rate, Week 1 Mean Change from Baseline: 3.96***
  Straining, Week 1 Mean Change from Baseline: −1.02***
  Abdominal discomfort, Week 1 Mean Change from Baseline: −0.26***
  Bloating, Week 1 Mean Change from Baseline: −0.31***
  Constipation severity, Week 1 Mean Change from Baseline: −0.82***
  Stool Consistency, Week 1 Mean Change from Baseline: 1.78***
[2]; 266 μg, Pooled (n = 418)
  CSBM rate, Week 1 Mean Change from Baseline: 2.42**
  SBM rate, Week 1 Mean Change from Baseline: 4.01***
  Straining, Week 1 Mean Change from Baseline: −1.14***
  Abdominal discomfort, Week 1 Mean Change from Baseline: −0.26***
  Bloating, Week 1 Mean Change from Baseline: −0.31***
  Constipation severity, Week 1 Mean Change from Baseline: −0.85***
  Stool Consistency, Week 1 Mean Change from Baseline: 1.87***
[2]; both trial 1 and 2
  Overall rates of discontinuation due to adverse events: 7.4%
[2]; both trial 1 and 2, linaclotide-treated patients
  most common adverse events: diarrhea, flatulence, and abdominal pain
[3]; 133 μg, Trial 2 (n = 217)
  CSBM rate, Week 1 Mean Change from Baseline: 1.89***
  SBM rate, Week 1 Mean Change from Baseline: 3.59***
  Straining, Week 1 Mean Change from Baseline: −0.99***
  Abdominal discomfort, Week 1 Mean Change from Baseline: −0.23
  Bloating, Week 1 Mean Change from Baseline: −0.32**
  Constipation severity, Week 1 Mean Change from Baseline: −0.80***
  Stool Consistency, Week 1 Mean Change from Baseline: 1.75***
[3]; 266 μg, Trial 2 (n = 216)
  CSBM rate, Week 1 Mean Change from Baseline: 2.02***
  SBM rate, Week 1 Mean Change from Baseline: 3.61***
  Straining, Week 1 Mean Change from Baseline: −1.06***
  Abdominal discomfort, Week 1 Mean Change from Baseline: −0.21
  Bloating, Week 1 Mean Change from Baseline: −0.27*
  Constipation severity, Week 1 Mean Change from Baseline: −0.76***
  Stool Consistency, Week 1 Mean Change from Baseline: 1.81***
[3]; Trial 2, 133 μg
  12-week CSBM overall responder rate: 21.2%
  increase in average weekly CSBMs from baseline: 1.9
  increase in average weekly SBMs from baseline: 3.0
  numerical increase of 12-week CSBM overall responder rate as compared to placebo: 6.3 fold
  patients reporting at least one CSBM within 24 hours of treatment: 33.2%
  patients reporting at least one SBM within 24 hours of treatment: 70.0%
  patients who experienced weekly CSBMs in at least nine out of 12 weeks: 21.7%
  patients with increase of ≧1 from baseline in weekly CSBMs in at least nine out of 12 weeks: 39.2%
  patients with increase of ≧1 from baseline in weekly CSBMs in at least six out of 12 weeks: 56.7%
[3]; Trial 2, 266 μg
  12-week CSBM overall responder rate: 19.4%
  increase in average weekly CSBMs from baseline: 2.0
  increase in average weekly SBMs from baseline: 3.0
  numerical increase of 12-week CSBM overall responder rate as compared to placebo: 5.8 fold
  patients reporting at least one CSBM within 24 hours of treatment: 26.9%
  patients reporting at least one SBM within 24 hours of treatment: 54.6%
  patients who experienced weekly CSBMs in at least nine out of 12 weeks: 19.4%
  patients with increase of ≧1 from baseline in weekly CSBMs in at least nine out of 12 weeks: 37.0%
  patients with increase of ≧1 from baseline in weekly CSBMs in at least six out of 12 weeks: 50.5%
[3]; [4]
  PAC-QOL overall assessments, 12 week overall mean change versus placebo: statistically significant improvements
  overall constipation severity score, 12 week overall mean change versus placebo: statistically significant improvements
  severity of straining score, 12 week overall mean change versus placebo: statistically significant improvements
  stool consistency score, 12 week overall mean change versus placebo: statistically significant improvements
[3]; Trial 2, 133 μg (p≦0.0001) and 266 μg (p≦0.01)
  bloating score, 12 week overall mean change versus placebo: statistically significant improvements
[3]; Trial 2, 133 μg (p≦0.001) and 266 μg (p≦0.01)
  abdominal discomfort score, 12 week overall mean change versus placebo: statistically significant improvements
[3]; study 2, week 2 (p<0.01)
  abdominal discomfort in week 2: Statistically significant improvement
